In patent publication US20170313674A1, “BENZYLHYDROXIDE DERIVATIVES, PREPARATION THEREOF AND THERAPEUTIC USE THEREOF” (SANOFI, priority 2014, published 2017) one finds IC50 data, which are given here for ten compounds.

This assay has as its system mitochondrial ATP production on non-small cell lung carcinoma cell lines NCI-H460. Description: Mitochondrial ATP analysis (Cell Titer Glo) in NCI-H460 cells. To be noted: 1-hour incubation, with sodium iodoacetate (100 μM), concentration inhibiting 50% of mitochondrial ATP production, read-out: IC50 (mito ATP). The assay is classed as cell-based. The protocol:
In order to evaluate the inhibitory activity of the all compounds, an in vitro assay was developed which read out is directly linked to mitochondrial complex 1 inhibition. Since mitochondrial complex 1 contributes to the formation of membrane potential coupled to the mitochondrial ATP synthesis, complex 1 inhibition directly leads in cells to the inhibition of mitochondrial ATP production. Cellular ATP contents were measured in presence of either glycolysis inhibitor (sodium iodocetate) and/or mitochondrial inhibitors (F0F1-ATPase inhibitor: oligomycin or mitochondrial uncoupler: FCCP) to determine the ATP production part relying either on glycolytic or on mitochondrial metabolism.
Mitochondrial ATP Analysis
The compounds of the invention were evaluated for their ability to inhibit mitochondrial
ATP was measured using the Promega Cell Titer Glo kit and protocol. In summary, 1,000 cells were plated in 40 μL in a 384 well plate. 24 hours later, medium was replaced by 20 μl culture medium in presence of compounds: cells were treated in replicates of five with control (PBS), oligomycin A (10 μg/ml), FCCP (30 μM), or the compounds of the invention in dose effect both alone or in combination with sodium iodoacetate (100 μM). Following a 1-hour incubation, 20 μL of CellTtiter-glo™ reaction mix were added to each well for a final volume of 40 μL. Plates were then analyzed for luminescence with a Perkin Elmer EnVision. By comparing the different conditions, global ATP and percentages of both glycolytic and mitochondrial ATP were determined.
The mitochondrial ATP production was calculated as the remaining ATP under iodoacetate treatment minus basal ATP (ATP content under iodoacetate and oligomycin treatment). Inhibitory activity of the compounds on mitochondrial ATP in NCI-H460 cells is expressed as the concentration needed to inhibit 50% of mitochondrial ATP production (IC50, M).
(ATP-based viability assays read luminescence as a measure of living cells.)

pIC50: −log10 of the molar value. Where a name gives a salt, the structure may show the parent alone. Read-outs that look alike come from different tables or passages of the source.

The term pIC50 denotes the IC50 on a negative log10 scale, so that one unit is a factor of ten. Consider `COc1cc(C(O)COc2ccc(-c3coc(-c4ccc(OCC(O)c5ccc(F)c(OC)c5)cc4)n3)cc2)ccc1F` (stereo not shown) [Compound I-16, 1-(4-fluoro-3-methoxy-phenyl)-2-[4-[2-[4-[2-(4-fluoro-3-methoxy-phenyl)-2-hydroxy-ethoxy]phenyl]oxazol-4-yl]phenoxy]ethanol], for which the pIC50 (Homo sapiens, NCI-H460, 1 h) is 6.45.
Consider `COc1ccc(C(O)COc2ccc(-c3cn(CCN4CCOCC4)c(-c4ccc(OCC(O)c5ccc(OC)c(OC)c5)cc4)n3)cc2)cc1OC` (stereo not shown) [Compound I-60, 1-(3,4-dimethoxyphenyl)-2-[4-[2-[4-[2-(3,4-dimethoxyphenyl)-2-hydroxy-ethoxy]phenyl]-1-(2-morpholinoethyl)imidazo1-4-yl]phenoxy]ethanol hydrochloride], for which the negative-log IC50 (pIC50) is < 5.00.
With `COc1ccc(C(O)C(C)(C)Oc2ccc(-c3c[nH]c(-c4ccc(OC(C)(C)C(O)c5ccc(OC)c(OC)c5)cc4)n3)cc2)cc1OC` (stereo not shown) [Compound I-54, 1-(3,4-dimethoxyphenyl)-2-[4-[2-[4-[2-(3,4-dimethoxyphenyl)-2-hydroxy-1,1-dimethyl-ethoxy]phenyl]-1H-imidazol-4-yl]phenoxy]-2-methyl-propan-1-ol], where the note is “Homo sapiens, NCI-H460, 1 h”, the pIC50 is 6.17.
`COc1ccc(C(O)COc2ccc(-c3nsc(-c4ccc(OCC(O)c5ccc(OC)c(OC)c5)cc4)n3)cc2)cc1OC` (single isomer, unassigned) [Compound I-41, 1-(3,4-dimethoxyphenyl)-2-[4-[5-[4-[2-(3,4-dimethoxyphenyl)-2-hydroxy-ethoxy]phenyl]-1,2,4-thiadiazol-3-yl]phenoxy]ethanol]: the pIC50 is 6.27.
As for `COc1ccc(C(O)COc2ccc(-c3nc(C)c(-c4ccc(OCC(O)c5ccc(OC)c(OC)c5)cc4)o3)cc2)cc1OC` (single isomer, unassigned) [Compound I-46, 1-(3,4-dimethoxyphenyl)-2-[4-[2-[4-[2-(3,4-dimethoxyphenyl)-2-hydroxy-ethoxy]phenyl]-4-methyl-oxazol-5-yl]phenoxy]ethanol], the pIC50 (Homo sapiens, NCI-H460, 1 h) was < 5.00.
`COc1ccc(C(O)COc2ccc(-c3csc(-c4ccc(OCC(O)c5ccc(OC)c(OC(F)F)c5)cc4)n3)cc2)cc1OC(F)F` (single isomer, unassigned) [Compound I-50, 1-[3-(difluoromethoxy)-4-methoxy-phenyl]-2-[4-[2-[4-[2-[3-(difluoromethoxy)-4-methoxy-phenyl]-2-hydroxy-ethoxy]phenyl]thiazol-4-yl]phenoxy]ethanol]: the pIC50 was 5.87.
On the same count and under the same terms, the figure for `COc1ccc(C(O)COc2ccc(-c3nc(-c4ccc(OC(C)(C)C(O)c5ccc(OC)c(OC)c5)cc4)cs3)cc2)cc1OC` (single isomer, unassigned) [Compound I-68, 1-(3,4-dimethoxyphenyl)-2-[4-[2-[4-[2-(3,4-dimethoxyphenyl)-2-hydroxy-ethoxy]phenyl]thiazol-4-yl]phenoxy]-2-methyl-propan-1-ol] is 7.48.
`COc1cc(C(O)COc2ccc(-c3coc(-c4ccc(OCC(O)c5cc(OC)c(OC)c(OC)c5)cc4)n3)cc2)cc(OC)c1OC` (stereo not shown) [Compound I-20, 2-[4-[2-[4-[2-hydroxy-2-(3,4,5-trimethoxyphenyl)ethoxy]phenyl]oxazol-4-yl]phenoxy]-1-(3,4,5-trimethoxyphenyl)ethanol]: the pIC50 (Homo sapiens, NCI-H460, 1 h) is 5.85.
Take `COc1ccc(C(O)C(C)(C)Oc2ccc(-c3csc(-c4ccc(OC(C)(C)C(O)c5ccc(OC)c(OC)c5)cc4)n3)cc2)cc1OC` (single isomer, unassigned) [Compound I-28, 1-(3,4-dimethoxyphenyl)-2-[4-[2-[4-[2-(3,4-dimethoxyphenyl)-2-hydroxy-1,1-dimethyl-ethoxy]phenyl]thiazol-4-yl]phenoxy]-2-methyl-propan-1-ol]: for the setting “Homo sapiens, NCI-H460, 1 h”, the pIC50 was 7.38.
As for `COc1ccc(C(O)COc2ccc(-c3nc(-c4ccc(OC(C)(C)C(O)c5ccc(OC)c(OC)c5)cc4)cs3)cc2)cc1OC` (single isomer, unassigned) [Compound I-67, 1-(3,4-dimethoxyphenyl)-2-[4-[2-[4-[2-(3,4-dimethoxyphenyl)-2-hydroxy-ethoxy]phenyl]thiazol-4-yl]phenoxy]-2-methyl-propan-1-ol], the pIC50 is 6.81.
